Like-named read-outs stand apart in the source and are kept apart here.
How the values were obtained:
[1] = molecular target: T1, hT2R14 (Homo sapiens (Human), UniProt Q9NYV8); assay: hT2R14 antagonist high-throughput FLIPR assay, stable cell line with G16g44, agonist aristolochic acid; type: cell-based
Procedure, shortened: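 HEK293 cells stably expressing hT2R14 with chimeric G16g44 were stimulated with aristolochic acid (3 μM), giving 70-80% of maximal receptor activity. Test compounds were added together with the agonist, and antagonism was read as fluorescent calcium signal on FLIPR.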

[2] = molecular target: hT2R3 (Homo sapiens (Human), UniProt Q9NYW6); assay: hT2R panel inhibition, transient HEK293 G16g44, agonist Chloroquine pH6.5 50 μM; type: cell-based; conditions: HEK293, compound at 25 μM; receptor activated to EC80 with the corresponding agonist; read-out: screening result against bitter receptor 3
Procedure, shortened: (§1)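 Each human T2R transiently transfected into HEK293 cells stably expressing G16g44; functional receptor assays run with the listed bitter agonist at EC80 concentration. Inhibition recorded as reduction of agonist-induced receptor activity in presence of Compound C.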

[3] = molecular target: hT2R4 (Homo sapiens (Human), UniProt Q9NYW5); assay: hT2R panel inhibition, transient HEK293 G16g44, agonist Chloroquine pH6.5 5 mM; type: cell-based; conditions: HEK293, compound at 25 μM; receptor activated to EC80 with the corresponding agonist; class symbols; read-out: screening result against bitter receptor 4
Procedure, shortened: as §1

[4] = molecular target: hT2R5 (Homo sapiens (Human), UniProt Q9NYW4); assay: hT2R panel inhibition, transient HEK293 G16g44, agonist Picoline 10 mM; type: cell-based; conditions: HEK293, compound at 25 μM; receptor activated to EC80 with the corresponding agonist; read-out: screening result against bitter receptor 5
Procedure, shortened: as §1

[5] = molecular target: hT2R7 (Homo sapiens (Human), UniProt Q9NYW3); assay: hT2R panel inhibition, transient HEK293 G16g44, agonist Chloroquine pH6.5 10 mM; type: cell-based; conditions: HEK293, compound at 25 μM; receptor activated to EC80 with the corresponding agonist; read-out: screening result against bitter receptor 7
Procedure, shortened: as §1

[6] = molecular target: hT2R9 (Homo sapiens (Human), UniProt Q9NYW1); assay: hT2R panel inhibition, transient HEK293 G16g44, agonist Ofloxacin 1 mM; type: cell-based; conditions: HEK293, compound at 25 μM; receptor activated to EC80 with the corresponding agonist; read-out: screening result against bitter receptor 9
Method: Specifically, in order to evaluate the inhibitory selectivity of the Compound C compound, this compound was tested against 22 human T2Rs which were deorphaned by Senomyx. These receptors and the bitter ligands that activate these human T2Rs are reported in earlier patent applications which are incorporated by reference herein. These 22 human T2Rs are hT2R1, 3, 4, 5, 7, 8, 9, 10, 13, 14, 16, 44, 51, 54, 55, 61, 63, 64, 65, 67, 71 and 75. The amino acid and nucleic acid sequences of all of these T2Rs may be found in these earlier patent applications. These human T2Rs were each individually transiently transfected into HEK293 cells that stably express the promiscuous G protein G16g44 and functional assays were effected using these receptors as disclosed in these same patent applications. […] The ligands were used at EC80 concentration levels. The list of bitter ligands utilized and the tested ligand concentrations are contained in Table 5 of this example.
Relating to the foregoing, FIG. 5 contains experimental results wherein Compound C was tested with different agonist compounds. The inhibition activity is represented by the reduction of receptor activity in the presence of Compound C. […] These 13 hT2Rs are hT2R3, 7, 10, 14, 16, 44, 51, 55, 61, 63, 64, 65, and 71.

[7] = molecular target: hT2R10 (Homo sapiens (Human), UniProt Q9NYW0); assay: hT2R panel inhibition, transient HEK293 G16g44, agonist Strychnine 50 μM; type: cell-based; conditions: HEK293, read-out: screening result against bitter receptor 10, compound at 25 μM; receptor activated to EC80 with the corresponding agonist
[8] = molecular target: T1, hT2R14; assay: hT2R panel inhibition, transient HEK293 G16g44, agonist Aristolochic Acid 2 μM; type: cell-based; conditions: HEK293, compound at 25 μM; receptor activated to EC80 with the corresponding agonist; read-out: screening result against bitter receptor 14
Procedure, shortened: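 Each hT2R was transiently transfected into HEK293 cells stably expressing G16g44 and assayed functionally for inhibition of agonist response. Agonists were applied at EC80: andrographolide at 0.5 mM for hT2R8 and aristolochic acid at 2 μM for hT2R14.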

[9] = molecular target: hT2R16 (Homo sapiens (Human), UniProt Q9NYV7); assay: hT2R panel inhibition, transient HEK293 G16g44, agonist Salicin 1 mM; type: cell-based; conditions: HEK293, compound at 25 μM; receptor activated to EC80 with the corresponding agonist; read-out: screening result against bitter receptor 16
Procedure, shortened: as §1

[10] = tested on: hT2R44; assay: hT2R panel inhibition, transient HEK293 G16g44, agonist Denatonium 0.5 μM; type: cell-based, human; conditions: compound at 25 μM; receptor activated to EC80 with the corresponding agonist
Procedure, shortened: as §1

[11] = molecular target: hT2R51 (Homo sapiens (Human), UniProt P59533); assay: hT2R panel inhibition, transient HEK293 G16g44, agonist Prop 2.5 μM; type: cell-based; conditions: HEK293, compound at 25 μM; receptor activated to EC80 with the corresponding agonist; read-out: screening result against bitter receptor 51
Procedure, shortened: as §1

[12] = tested on: hT2R54; assay: hT2R panel inhibition, transient HEK293 G16g44, agonist Ranitidine 5 mM; type: cell-based, human; conditions: compound at 25 μM; receptor activated to EC80 with the corresponding agonist
Procedure, shortened: as §1

[13] = tested on: hT2R55; assay: hT2R panel inhibition, transient HEK293 G16g44, agonist Cinchonine 150 μM; type: cell-based, human; conditions: compound at 25 μM; receptor activated to EC80 with the corresponding agonist
Procedure, shortened: as §1

[14] = tested on: hT2R65; assay: hT2R panel inhibition, transient HEK293 G16g44, agonist Oleuropein 1 mM; type: cell-based, human; conditions: compound at 25 μM; receptor activated to EC80 with the corresponding agonist
Procedure, shortened: as §1

[15] = tested on: hT2R67; assay: hT2R panel inhibition, transient HEK293 G16g44, agonist Andrographolide 5 μM; type: cell-based, human; conditions: compound at 25 μM; receptor activated to EC80 with the corresponding agonist
Procedure, shortened: as §1

[16] = molecular target: hT2R61 (Homo sapiens (Human), UniProt P59537); assay: hT2R panel inhibition, transient HEK293 G16g44, agonist Aristolochic Acid 25 nM; type: cell-based; conditions: HEK293, compound at 25 μM; receptor activated to EC80 with the corresponding agonist; read-out: screening result against bitter receptor 61
Procedure, shortened: as §1

[17] = tested on: hT2R63; assay: hT2R panel inhibition, transient HEK293 G16g44, agonist Caffeine 1 mM or Andrographolide 100 μM; type: cell-based, human; conditions: compound at 25 μM; receptor activated to EC80 with the corresponding agonist
Procedure, shortened: as §1

[18] = molecular target: hT2R64 (Homo sapiens (Human), UniProt P59538); assay: hT2R panel inhibition, transient HEK293 G16g44, agonist Aristolochic Acid 1 μM; type: cell-based; conditions: HEK293, compound at 25 μM; receptor activated to EC80 with the corresponding agonist; read-out: screening result against bitter receptor 64
Procedure, shortened: as §1

[19] = molecular target: hT2R71 (Homo sapiens (Human), UniProt P59536); assay: hT2R panel inhibition, transient HEK293 G16g44, agonist Picric Acid 10 μM; type: cell-based; conditions: HEK293, compound at 25 μM; receptor activated to EC80 with the corresponding agonist; read-out: screening result against bitter receptor 71
Procedure, shortened: as §1

[20] = molecular target: hT2R75 (Homo sapiens (Human), UniProt P59540); assay: hT2R panel inhibition, transient HEK293 G16g44, agonist Strychnine 1 μM; type: cell-based; conditions: HEK293, read-out: screening result against bitter receptor 75, compound at 25 μM; receptor activated to EC80 with the corresponding agonist
Sequence of hT2R75 (P59540 whole entry): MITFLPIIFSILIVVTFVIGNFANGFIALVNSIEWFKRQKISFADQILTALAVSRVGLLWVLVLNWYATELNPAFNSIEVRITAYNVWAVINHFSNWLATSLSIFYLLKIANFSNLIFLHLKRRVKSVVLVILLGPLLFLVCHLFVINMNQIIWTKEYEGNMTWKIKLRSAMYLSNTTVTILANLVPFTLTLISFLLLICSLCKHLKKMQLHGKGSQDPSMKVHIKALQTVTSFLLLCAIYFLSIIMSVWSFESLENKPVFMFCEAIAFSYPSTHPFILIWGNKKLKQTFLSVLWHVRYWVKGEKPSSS

Sequence of hT2R10 (Q9NYW0 whole entry): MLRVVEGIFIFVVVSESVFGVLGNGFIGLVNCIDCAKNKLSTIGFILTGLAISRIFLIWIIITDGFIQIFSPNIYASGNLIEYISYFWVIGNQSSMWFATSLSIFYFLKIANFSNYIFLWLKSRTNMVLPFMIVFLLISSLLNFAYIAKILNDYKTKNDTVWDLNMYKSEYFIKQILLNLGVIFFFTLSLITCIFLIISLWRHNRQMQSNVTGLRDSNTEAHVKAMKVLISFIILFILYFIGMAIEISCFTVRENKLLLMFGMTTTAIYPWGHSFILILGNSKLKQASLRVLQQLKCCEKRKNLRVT
Sequence of hT2R9 (Q9NYW1 whole entry): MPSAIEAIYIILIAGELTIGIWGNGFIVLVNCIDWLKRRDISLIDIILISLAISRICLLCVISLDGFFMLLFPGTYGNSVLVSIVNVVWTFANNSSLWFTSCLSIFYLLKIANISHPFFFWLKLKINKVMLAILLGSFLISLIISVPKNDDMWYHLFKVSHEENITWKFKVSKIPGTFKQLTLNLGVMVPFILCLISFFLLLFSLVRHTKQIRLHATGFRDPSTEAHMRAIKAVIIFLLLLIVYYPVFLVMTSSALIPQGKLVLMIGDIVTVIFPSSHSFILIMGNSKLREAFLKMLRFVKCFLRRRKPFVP
Sequence of hT2R16 (Q9NYV7 whole entry): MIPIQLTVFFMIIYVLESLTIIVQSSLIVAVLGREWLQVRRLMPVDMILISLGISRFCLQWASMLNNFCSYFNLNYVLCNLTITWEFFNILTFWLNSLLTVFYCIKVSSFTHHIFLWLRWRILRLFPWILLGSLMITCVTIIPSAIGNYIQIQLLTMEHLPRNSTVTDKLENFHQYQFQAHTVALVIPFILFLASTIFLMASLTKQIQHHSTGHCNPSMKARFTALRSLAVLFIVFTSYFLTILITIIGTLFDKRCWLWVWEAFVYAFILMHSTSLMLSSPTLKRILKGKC
Sequence of hT2R3 (Q9NYW6 whole entry): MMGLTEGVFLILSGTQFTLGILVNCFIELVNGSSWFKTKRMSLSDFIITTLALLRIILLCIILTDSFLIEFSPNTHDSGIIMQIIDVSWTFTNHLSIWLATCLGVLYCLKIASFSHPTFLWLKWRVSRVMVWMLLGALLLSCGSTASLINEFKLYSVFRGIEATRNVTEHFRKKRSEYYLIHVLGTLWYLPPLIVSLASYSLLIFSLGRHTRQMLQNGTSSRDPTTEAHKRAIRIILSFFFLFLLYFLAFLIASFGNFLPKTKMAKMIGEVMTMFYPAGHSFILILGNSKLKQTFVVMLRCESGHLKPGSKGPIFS
T1 sequence (Q9NYV8 whole entry): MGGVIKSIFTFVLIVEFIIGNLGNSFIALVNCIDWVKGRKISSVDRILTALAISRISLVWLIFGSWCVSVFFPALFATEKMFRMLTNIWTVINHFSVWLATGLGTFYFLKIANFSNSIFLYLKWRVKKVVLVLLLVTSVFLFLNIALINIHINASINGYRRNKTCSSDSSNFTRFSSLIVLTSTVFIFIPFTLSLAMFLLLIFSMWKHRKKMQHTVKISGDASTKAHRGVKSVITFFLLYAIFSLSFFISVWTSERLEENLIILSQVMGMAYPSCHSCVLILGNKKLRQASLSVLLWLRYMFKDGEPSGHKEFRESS
Sequence of hT2R7 (Q9NYW3 whole entry): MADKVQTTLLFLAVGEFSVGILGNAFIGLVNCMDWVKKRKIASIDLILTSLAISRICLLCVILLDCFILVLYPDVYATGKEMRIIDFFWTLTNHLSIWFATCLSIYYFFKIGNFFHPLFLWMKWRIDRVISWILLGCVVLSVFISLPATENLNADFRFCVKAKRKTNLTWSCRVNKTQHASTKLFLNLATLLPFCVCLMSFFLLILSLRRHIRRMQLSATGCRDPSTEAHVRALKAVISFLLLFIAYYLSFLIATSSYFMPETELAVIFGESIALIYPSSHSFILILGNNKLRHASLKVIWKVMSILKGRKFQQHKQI
Sequence of hT2R5 (Q9NYW4 whole entry): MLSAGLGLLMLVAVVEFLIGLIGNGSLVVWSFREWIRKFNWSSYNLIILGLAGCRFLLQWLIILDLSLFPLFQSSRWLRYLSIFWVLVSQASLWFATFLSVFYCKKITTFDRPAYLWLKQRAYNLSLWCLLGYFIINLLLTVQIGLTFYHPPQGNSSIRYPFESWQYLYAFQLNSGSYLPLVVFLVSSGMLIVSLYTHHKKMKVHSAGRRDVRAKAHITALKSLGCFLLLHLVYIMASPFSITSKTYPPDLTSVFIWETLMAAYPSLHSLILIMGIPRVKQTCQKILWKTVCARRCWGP
Sequence of hT2R64 (P59538 whole entry): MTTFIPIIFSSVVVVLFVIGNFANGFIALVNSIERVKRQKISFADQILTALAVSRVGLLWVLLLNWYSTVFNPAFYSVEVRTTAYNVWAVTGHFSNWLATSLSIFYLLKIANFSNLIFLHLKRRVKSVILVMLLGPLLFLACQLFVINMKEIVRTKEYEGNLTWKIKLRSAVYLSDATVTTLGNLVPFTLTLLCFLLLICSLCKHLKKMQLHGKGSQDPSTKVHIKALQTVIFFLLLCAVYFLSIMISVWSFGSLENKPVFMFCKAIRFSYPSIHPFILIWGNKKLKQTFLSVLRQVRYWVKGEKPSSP
Sequence of hT2R71 (P59536 whole entry): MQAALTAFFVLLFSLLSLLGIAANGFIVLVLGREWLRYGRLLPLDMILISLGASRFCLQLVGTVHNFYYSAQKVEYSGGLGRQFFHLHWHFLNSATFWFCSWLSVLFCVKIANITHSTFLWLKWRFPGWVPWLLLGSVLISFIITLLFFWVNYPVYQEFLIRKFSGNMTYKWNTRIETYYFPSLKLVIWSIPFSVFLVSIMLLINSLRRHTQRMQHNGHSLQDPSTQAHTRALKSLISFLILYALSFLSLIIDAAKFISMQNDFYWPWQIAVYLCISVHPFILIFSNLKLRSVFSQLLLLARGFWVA
Sequence of hT2R61 (P59537 whole entry): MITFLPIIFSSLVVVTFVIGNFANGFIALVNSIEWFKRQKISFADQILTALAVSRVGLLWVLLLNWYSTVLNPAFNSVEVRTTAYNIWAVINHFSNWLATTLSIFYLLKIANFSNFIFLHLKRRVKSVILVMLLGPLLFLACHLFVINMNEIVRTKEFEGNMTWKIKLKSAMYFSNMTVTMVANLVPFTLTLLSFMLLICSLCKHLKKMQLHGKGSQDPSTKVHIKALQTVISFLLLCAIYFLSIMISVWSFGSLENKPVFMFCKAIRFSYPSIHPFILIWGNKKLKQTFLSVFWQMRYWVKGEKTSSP
Sequence of hT2R4 (Q9NYW5 whole entry): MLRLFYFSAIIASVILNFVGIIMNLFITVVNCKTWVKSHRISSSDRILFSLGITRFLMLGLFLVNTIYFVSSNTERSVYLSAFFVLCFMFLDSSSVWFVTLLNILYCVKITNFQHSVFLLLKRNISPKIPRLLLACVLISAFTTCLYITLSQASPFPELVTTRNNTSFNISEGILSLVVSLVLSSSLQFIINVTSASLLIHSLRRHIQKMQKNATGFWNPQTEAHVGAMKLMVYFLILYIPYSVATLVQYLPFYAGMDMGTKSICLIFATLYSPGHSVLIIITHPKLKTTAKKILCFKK
Sequence of hT2R51 (P59533 whole entry): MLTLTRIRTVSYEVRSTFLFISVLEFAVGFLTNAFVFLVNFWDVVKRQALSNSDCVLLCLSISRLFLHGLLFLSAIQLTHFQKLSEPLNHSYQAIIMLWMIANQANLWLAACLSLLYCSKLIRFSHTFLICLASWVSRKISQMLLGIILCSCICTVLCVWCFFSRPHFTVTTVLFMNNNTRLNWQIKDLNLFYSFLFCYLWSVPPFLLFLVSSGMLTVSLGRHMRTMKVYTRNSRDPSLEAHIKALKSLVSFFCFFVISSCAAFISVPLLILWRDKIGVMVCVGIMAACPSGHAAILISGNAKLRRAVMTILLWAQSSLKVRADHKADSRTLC

COc1ccc(CN(Cc2ccccc2C#N)S(=O)(=O)c2ccc(C(=O)O)cc2)cc1 [Example 5-25, 4-(N-(2-cyanobenzyl)-N-(4-methoxybenzyl)sulfamoyl)benzoic acid]
IC50 ([1]; read-out: IC50 on hT2R14 bitter receptor): 4610 nM
inhibition at 25 µM [2]: 60 to 80%
inhibition at 25 µM [3]: 20 to 40%
inhibition at 25 µM [4]: 40 to 60%
inhibition at 25 µM [5]: 40 to 60%
inhibition at 25 µM [6]: 20 to 40%
inhibition at 25 µM [7]: 60 to 80%
inhibition at 25 µM [8]: > 80%
inhibition at 25 µM [9]: 40 to 60%
screening result against bitter receptor 44 [10]: +++ (60% to 80% inhibition = +++)
inhibition at 25 µM [11]: 20 to 40%
screening result against bitter receptor 54 [12]: +++ (60% to 80% inhibition = +++)
screening result against bitter receptor 55 [13]: +++ (60% to 80% inhibition = +++)
screening result against bitter receptor 65 [14]: ++++ (80% or greater inhibition = ++++)
screening result against bitter receptor 67 [15]: ++ (40% to 60% inhibition = ++)

COc1ccccc1CN(Cc1ccc(C(=O)O)cc1)S(=O)(=O)c1ccccc1 [Example 5-100, 4-((N-(2-methoxybenzyl)phenylsulfonamido)methyl) benzoic acid]
IC50 ([1]; Table C, read-out: hT2R14 IC50): 1290 nM
inhibition at 25 µM [2]: 20 to 40%
inhibition at 25 µM [3]: 40 to 60%
inhibition at 25 µM [4]: 20 to 40%
inhibition at 25 µM [5]: 20 to 40%
inhibition at 25 µM [6]: 20 to 40%
inhibition at 25 µM [7]: 20 to 40%
inhibition at 25 µM [8]: 40 to 60%
inhibition at 25 µM [9]: 20 to 40%
screening result against bitter receptor 44 [10]: +++ (60% to 80% inhibition = +++)
screening result against bitter receptor 54 [12]: + (20% to 40% inhibition = +)
screening result against bitter receptor 55 [13]: +++ (60% to 80% inhibition = +++)
inhibition at 25 µM [16]: 60 to 80%
screening result against bitter receptor 63 [17]: + (20% to 40% inhibition = +)
inhibition at 25 µM [18]: > 80%
screening result against bitter receptor 65 [14]: ++ (40% to 60% inhibition = ++)
inhibition at 25 µM [19]: 60 to 80%
inhibition at 25 µM [20]: 20 to 40%

Cc1ccccc1CN(Cc1ccccc1)S(=O)(=O)c1ccc(C(=O)O)cc1 [Example 5-80, 4-(N-benzyl-N-(2-methylbenzyl)sulfamoyl)benzoic acid]
inhibition at 25 µM [2]: 40 to 60%
inhibition at 25 µM [4]: 20 to 40%
inhibition at 25 µM [5]: 20 to 40%
inhibition at 25 µM [6]: 20 to 40%
inhibition at 25 µM [7]: 20 to 40%
inhibition at 25 µM [8]: > 80%
inhibition at 25 µM [9]: 20 to 40%
screening result against bitter receptor 44 [10]: + (20% to 40% inhibition = +)
inhibition at 25 µM [11]: 40 to 60%
screening result against bitter receptor 54 [12]: + (20% to 40% inhibition = +)
screening result against bitter receptor 55 [13]: +++ (60% to 80% inhibition = +++)
inhibition at 25 µM [16]: 60 to 80%
screening result against bitter receptor 63 [17]: ++++ (80% or greater inhibition = ++++)
inhibition at 25 µM [18]: 60 to 80%
screening result against bitter receptor 65 [14]: ++ (40% to 60% inhibition = ++)
screening result against bitter receptor 67 [15]: + (20% to 40% inhibition = +)
inhibition at 25 µM [19]: 60 to 80%
inhibition at 25 µM [20]: 20 to 40%
